The values that follow come from paper doi:10.1101/2025.02.17.638454, “Synergistic RAS-MAPK and AKT Activation in MYC-Driven Tumors via Adjacent PVT1 Rearrangements” (bioRxiv, 2025).

Data set [1] deals with D458 cells. The data set can be described thus: Proliferation assay D458. Conditions: D458, stable knockdown of PVT1ts vs sh.Cntrl; two-way ANOVA. Type of data set: cell-based, human.
Data set [2] has as its system MYC. The data set can be described thus: Western blot of MYC in D458. Type of data set: cell-based, human. The note with it: D458, stable knockdown of PVT1ts vs sh.Cntrl; n=3, unpaired t-test. On the procedure:
For whole-cell lysate, the cell pellet was resuspended in RIPA buffer (Cell Signaling Technologies, Danvers, MA) supplemented with a protease inhibitor cocktail (Cell Signaling Technologies) and incubated on ice for 20 minutes. The lysate was then centrifuged at 14,000 revolutions/minute for 10 minutes at 4°C, and the supernatant was harvested. Protein concentration was quantified by BCA Protein Assay Kit (Thermo Fisher Scientific) as per kit protocol. Next, 20 μg of whole-cell lysate was electrophoresed on a 4%–20% gradient polyacrylamide gel with SDS (Bio-Rad, Hercules, CA) and electroblotted onto polyvinylidene difluoride membranes (Bio-Rad). Membranes were blocked in Tris-buffered saline with 5% nonfat milk and 0.1% Tween and probed with antibodies. Bound proteins were detected with horseradish-peroxidase–conjugated secondary antibodies (Cell Signaling Technologies) and SuperSignal West Femto (Thermo Fisher Scientific). Antibodies used were anti-c-MYC (Cell Signaling Technology, 5605, anti-Phospho-c-MYC (Ser62) (Cell Signaling Technology, 13748), anti-β ACTIN (Cell Signaling Technology, 8457), anti-Phospho-p44/42 (Erk1/2) (Thr202/Tyr204) (Cell Signaling Technology, 4370), anti-p44/42 (Erk1/2) (Cell Signaling Technology, 4695), anti-Phospho-MEK1/2 (Ser217/221) (Cell Signaling Technology, 9154), anti-MEK1/2 (Cell Signaling Technology, 9122), anti-Phospho-p90RSK (Ser380) (Cell Signaling Technology, 11989), anti-RSK1/RSK2/RSK3 (Cell Signaling Technology, 9355), Anti-Rabbit IgG, HRP-linked Antibody (Cell Signaling Technology, 7074). Anti-FFX (Firefox) monoclonal antibodies were custom produced by Proteintech using FFX residues 13–104 as epitope.
The HNB ORF and eGFP (control) were cloned in an inducible lentivirus expression, TRE-gateway plasmid (pLIX_403, Addgene, #41395). Lentivirus was produced in HEK293T cells using the protocol described above. D458, NCI-H1792 and COLO 320DM cells were transfected with inducible HNB lentivirus and selected with 1 μg/mL concentration of Puromycin. Selected cells were seeded at a concentration of 4 × 10^5 cells per well. After 24 hours of seeding, the cells were treated with 1 μg/mL Doxycycline for 48 hours. The cells were then lysed using RIPA buffer and 1X protease inhibitor cocktail. The protein lysates were collected and quantified using the previously described protocol. 20 μg of whole-cell lysate was electrophoresed on a 4%–20% gradient polyacrylamide gel with SDS (Bio-Rad, Hercules, CA) and electroblotted onto polyvinylidene difluoride membranes (Bio-Rad). […] Bound proteins were detected with horseradish-peroxidase–conjugated secondary antibodies (Cell Signaling Technologies) and SuperSignal West Femto (Thermo Fisher Scientific). […]

The test system of data set [3] is D458 cells. The data set can be described thus: Orthotopic transplantation of D458 into brains of immunocompromised mice. Format: in vivo. Conditions: D458 sh.RNA1-PVT1ts vs sh.Cntrl in mouse brain; bioluminescence day 9, 14, 21; n=10 each, unpaired t-test. On the procedure:
All animal procedures were conducted in accordance with the guidelines established by the Institutional Animal Care and Use Committee of Sanford Burnham Prebys Medical Discovery Institute. Efforts were made to minimize animal suffering and to reduce the number of animals used as per the guidelines of AAALAC International and a Multiple Project Assurance A3053–1 is on file in the OLAW, DHHS.

The next data set concerns BxPC-3 cells. The data set can be described thus: Proliferation assay BxPC-3. Format: cell-based, human. Conditions: BxPC-3, si.PVT1ts vs si_ctrl; n=3, two-way ANOVA. The source says:
(§1) Cancer cell lines: COLO-320DM, SK-PN-DW, U2OS, BxPC-3, DU145, SKBR-3 and, NCI-H1792 were obtained from American Type Culture Collection (Rockville, MD) and grown in their required growth medium per the American Type Culture Collection description. D458 and MB002 were obtained from Dr. Michael Taylor’s lab at SickKids hospital, Toronto. Cell line identity for the master stocks were verified by STR genotyping (IDEXX BioResearch)
(§2) Supplementary Figure 14: Analysis of Cell Proliferation in MYC/PVT1 Neutral Cell Lines
(§3) (U2OS, BxPC-3, DU-145) following Transfection with si_PVT1ts or si_ctrl: Each experiment
(§4) was performed in triplicate (n=3), and statistical significance was determined using two-way
(§5) ANOVA (P values indicated)
(§6) .CC-BY 4.0 International licenseavailable under a
(§7) (which was not certified by peer review) is the author/funder, who has granted bioRxiv a license to display the preprint in perpetuity. It is made
(§8) The copyright holder for this preprintthis version posted February 22, 2025.; https://doi.org/10.1101/2025.02.17.638454doi: bioRxiv preprint […]

Data set [4] has as its system MYC. Briefly: Western blot of MYC in BxPC-3. Type of data set: cell-based, human. The note with it: BxPC-3, si.PVT1ts vs si.Ctrl; n=3, unpaired t-test. How it is done: (§9) For whole-cell lysate, the cell pellet was resuspended in RIPA buffer (Cell Signaling Technologies, Danvers, MA) supplemented with a protease inhibitor cocktail (Cell Signaling Technologies) and incubated on ice for 20 minutes. The lysate was then centrifuged at 14,000 revolutions/minute for 10 minutes at 4°C, and the supernatant was harvested. Protein concentration was quantified by BCA Protein Assay Kit (Thermo Fisher Scientific) as per kit protocol. Next, 20 μg of whole-cell lysate was electrophoresed on a 4%–20% gradient polyacrylamide gel with SDS (Bio-Rad, Hercules, CA) and electroblotted onto polyvinylidene difluoride membranes (Bio-Rad). Membranes were blocked in Tris-buffered saline with 5% nonfat milk and 0.1% Tween and probed with antibodies. Bound proteins were detected with horseradish-peroxidase–conjugated secondary antibodies (Cell Signaling Technologies) and SuperSignal West Femto (Thermo Fisher Scientific). […]

The test system of data set [5] is MYC. The data set can be described thus: Western blot of MYC in U2OS. Type of data set: cell-based, human. The note with it: si.PVT1ts vs si.Ctrl, n=3, unpaired t-test. How it is done: as §9
Supplementary Figure 10: FFX protein augments MYC expression (A) Western blot analysis of MYC expression in U2OS cells ectopically transduced with constructs expressing GFP (control) or FFX. […] (C&D) Western blot analysis and quantification of MYC expression in U2OS cells transduced with GFP (control), FFX, FFX(CO), and FFX ATG>TGA. […]

Data set [6] concerns MYC. The data set can be described thus: Western blot of MYC in DU-145. Format: cell-based, human. The note with it: DU-145, si.PVT1ts vs si.Ctrl; n=3, unpaired t-test. How it is done: as §9
The subject of the next data set is DU-145 cells. The data set can be described thus: Proliferation assay DU-145. Type of data set: cell-based, human. Conditions: DU-145, si.PVT1ts vs si_ctrl; n=3, two-way ANOVA.
Excerpt: as §1, §2, §3, §4, §5, §6, §7, §8

Another data set has as its system U2OS cells. The data set can be described thus: Proliferation assay U2OS. Type of data set: cell-based, human. The note with it: si.PVT1ts vs si_ctrl, n=3, two-way ANOVA.
Excerpt: as §1, §2, §3, §4, §5, §6, §7, §8

Turning to “shRNA1-PVT1ts: shRNA against PVT1ts, CCGGGGACAGCTTCAACCCATTACG CTCGAGCGTAATGGGTTGAAGCTGTCCTTTTTG (CCGGGGACAGCTTCAACCCATTACGCTCGAGCGTAATGGGTTGAAGCTGTCCTTTTTG)”, the cellular proliferation result in the data set with D458 cells [1] is listed as “increased proliferation”. Also, the MYC protein levels entry with MYC [2] was “increased proliferation (Figure 4D) and MYC protein levels”. Also, the “tumor growth after orthotopic injection” value in the data set with D458 cells [3] is recorded as “grew significantly more aggressively than controls”.

Take “shRNA2-PVT1ts: shRNA against PVT1ts, CCGGACCTATGAGCTTTGAATAATT CAAGAGATTATTCAAAGCTCATAGGTTTTTT (CCGGACCTATGAGCTTTGAATAATTCAAGAGATTATTCAAAGCTCATAGGTTTTTT)”: in the data set with D458 cells [1], the cellular proliferation result is “increased proliferation”. The MYC protein levels entry with MYC [2] was “increased proliferation (Figure 4D) and MYC protein levels”.

For “si.PVT1ts: siRNA targeting variants containing exons 7–9, 5’-ACCUAUGAGCUUUGAAUAA-3’ (other strand not given here)”, the cellular proliferation entry with BxPC-3 cells, in the data set on DU-145 cells and in the data set on U2OS cells was “proliferate faster” in each case. The MYC protein levels result in the data set with MYC [4], in the data set on MYC [5] and in the data set with MYC [6] was “increase in MYC protein levels” in each case.
